# According to the supplement of paper PMC10307832:
# How the values were obtained:
# Experiment in all cases: relative viability (nuclei count vs DMSO), 5 days (fraction); higher = more cells survive
# Doramapimod + Alpelisib = compound: Cc1ccc(-n2nc(C(C)(C)C)cc2NC(=O)Nc2ccc(OCCN3CCOCC3)c3ccccc23)cc1 [Doramapimod] + Cc1nc(NC(=O)N2CCC[C@H]2C(N)=O)sc1-c1ccnc(C(C)(C)C(F)(F)F)c1 [Alpelisib] (partner 2 µM)
# In short: (§1)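 Relative viability is defined as nuclei in treated wells over nuclei in vehicle wells. Duplicate plates were run and medians reported. Lung cancer cell lines in 1536-well plates were dosed by pin tool one day after seeding, with one drug or with a fixed anchor-drug dose plus five library-drug doses (not always all listed) in √10 steps, and nuclei were counted after 5 days.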
# Doramapimod + Dasatinib = compound: Cc1ccc(-n2nc(C(C)(C)C)cc2NC(=O)Nc2ccc(OCCN3CCOCC3)c3ccccc23)cc1 [Doramapimod] + Cc1nc(Nc2ncc(C(=O)Nc3c(C)cccc3Cl)s2)cc(N2CCN(CCO)CC2)n1 [Dasatinib] (partner 0.075 µM)
# In short: as §1
# IPA-3 + Linsitinib = compound: C1=CC=C2C(=C1)C=CC(=C2SSC3=C(C=CC4=CC=CC=C43)O)O [IPA-3] + C[C@]1(O)C[C@@H](c2nc(-c3ccc4ccc(-c5ccccc5)nc4c3)c3c(N)nccn32)C1 [Linsitinib] (partner 1 µM)
# In short: as §1
# IPA-3 + Olaparib = compound: C1=CC=C2C(=C1)C=CC(=C2SSC3=C(C=CC4=CC=CC=C43)O)O [IPA-3] + O=C(c1cc(Cc2n[nH]c(=O)c3ccccc23)ccc1F)N1CCN(C(=O)C2CC2)CC1 [Olaparib] (partner 8 µM)
# In short: as §1
Cell Line,relative viability (Doramapimod + Alpelisib; first compound 0.02 µM),relative viability (Doramapimod + Alpelisib; first compound 0.06325 µM),relative viability (Doramapimod + Alpelisib; first compound 0.2 µM),relative viability (Doramapimod + Alpelisib; first compound 0.6325 µM),relative viability (Doramapimod + Alpelisib; first compound 2 µM),relative viability (Doramapimod + Dasatinib; first compound 0.02 µM),relative viability (Doramapimod + Dasatinib; first compound 0.06325 µM),relative viability (Doramapimod + Dasatinib; first compound 0.2 µM),relative viability (Doramapimod + Dasatinib; first compound 0.6325 µM),relative viability (Doramapimod + Dasatinib; first compound 2 µM),relative viability (IPA-3 + Linsitinib; first compound 0.2 µM),relative viability (IPA-3 + Linsitinib; first compound 0.6325 µM),relative viability (IPA-3 + Linsitinib; first compound 2 µM),relative viability (IPA-3 + Linsitinib; first compound 6.325 µM),relative viability (IPA-3 + Linsitinib; first compound 20 µM),relative viability (IPA-3 + Olaparib; first compound 0.2 µM),relative viability (IPA-3 + Olaparib; first compound 0.6325 µM),relative viability (IPA-3 + Olaparib; first compound 2 µM),relative viability (IPA-3 + Olaparib; first compound 6.325 µM),relative viability (IPA-3 + Olaparib; first compound 20 µM)
LCLC-97TM1,0.205,0.221,0.275,0.266,0.212,0.837,0.87,0.768,0.699,0.591,0.208,0.215,0.181,0.202,0.215,0.397,0.337,0.475,0.265,0.359
COR-L23,0.762,0.719,0.755,0.734,0.697,0.527,0.554,0.5,0.545,0.513,1.13,0.837,0.92,0.797,0.819,0.314,0.34,0.406,0.281,0.301
NCI-H1355,0.739,0.793,0.754,0.868,0.732,0.713,0.692,0.724,0.753,0.623,0.942,0.82,0.786,0.742,0.895,0.764,0.779,0.836,0.675,0.709
NCI-H1666,0.834,1.01,0.882,1.03,1.01,0.889,0.881,0.876,1.14,0.87,0.865,0.87,0.857,0.763,0.693,0.854,0.655,0.764,0.749,0.836
EPLC-272H,0.924,0.918,0.946,1.04,0.811,0.438,0.326,0.435,0.479,0.332,1.16,1.13,1.22,1.14,1.41,1.16,0.628,0.797,0.787,0.887
NCI-H1651,0.788,0.987,0.876,0.962,0.859,0.481,0.458,0.449,0.54,0.32,1.1,–,1.07,1.04,1.05,0.198,0.187,0.189,0.179,0.178
SW 1573,0.766,0.712,0.644,0.726,0.549,0.461,0.394,0.588,0.685,0.411,1.07,0.921,0.682,0.833,0.843,0.665,0.403,0.404,0.403,0.0864
PC-3 [JPC-3],1.15,1.01,1.09,1.11,0.978,1,1.04,0.939,1.05,1.02,0.965,0.904,0.977,0.994,0.922,1.11,1.08,1.28,1.05,1.13
LOU-NH91,0.794,0.728,0.728,0.893,0.574,0.559,0.535,0.599,0.671,0.365,0.985,0.92,0.979,0.99,1.14,0.953,0.911,0.965,0.896,1.03
PC-14,1.01,1.06,0.892,0.995,0.89,0.282,0.274,0.28,0.341,0.243,0.945,0.96,1.01,0.922,1.09,0.286,0.29,0.335,0.222,0.134
NCI-H2087,1.2,1.25,1.05,1.23,0.838,0.937,1.07,0.809,0.893,0.837,1.1,1.05,0.925,0.86,0.995,0.685,0.631,0.642,0.474,0.763
LU99A,0.523,0.484,0.486,0.484,0.441,0.488,0.498,0.413,0.612,0.552,0.563,0.476,0.553,0.517,0.547,0.304,0.268,0.291,0.277,0.249
BEN,0.903,0.876,1.05,0.97,0.95,0.34,0.349,0.317,0.345,0.273,0.986,1.01,0.974,1.05,1.18,1.07,1.15,1.08,1.06,1.23
SK-LU-1,0.901,0.925,1.14,1.19,0.866,0.16,0.182,0.195,0.204,0.218,1.44,–,1.27,0.893,1.11,0.536,0.456,0.494,0.389,0.466
NCI-H1975,0.756,0.674,0.69,0.77,0.676,0.284,0.365,0.353,0.374,0.357,1.06,1.01,1.02,1.03,1.09,1.03,0.761,0.815,0.705,0.495
RERF-LC-KJ,0.857,0.865,0.765,1.01,0.867,0.88,0.709,0.729,0.769,0.768,0.965,0.876,0.875,0.811,1.01,0.92,0.942,0.982,0.771,0.424
NCI-H441,0.694,–,0.813,0.704,0.779,0.413,0.506,0.544,–,0.425,0.568,0.568,0.611,0.541,0.515,0.759,0.507,0.48,0.409,0.432
LCLC-103H,0.998,0.917,0.961,0.966,0.973,0.451,0.488,0.374,0.448,0.44,1.1,1.07,1.01,1.1,1.16,0.765,0.693,0.78,0.681,0.789
HCC-78,0.288,0.327,0.325,0.343,0.285,0.359,0.431,0.364,0.382,0.304,0.569,0.597,0.454,0.583,0.635,0.885,0.836,0.805,0.881,0.932
NCI-H1915,1.04,1.1,1.12,1.11,1.08,0.304,0.327,0.316,0.354,0.307,1.12,1.13,1.11,1.08,1.09,0.28,0.237,0.269,0.246,0.255
